Target: T1, human ferroportin (Homo sapiens, UniProt Q9NP59)
T1 construct: luciferase reporter (read with the Nano-Glo Luciferase Assay System); expressed in transfected cells; host or cells: CHO cells, stably transfected, expression induced with doxycycline
T1 sequence (Q9NP59 1-571): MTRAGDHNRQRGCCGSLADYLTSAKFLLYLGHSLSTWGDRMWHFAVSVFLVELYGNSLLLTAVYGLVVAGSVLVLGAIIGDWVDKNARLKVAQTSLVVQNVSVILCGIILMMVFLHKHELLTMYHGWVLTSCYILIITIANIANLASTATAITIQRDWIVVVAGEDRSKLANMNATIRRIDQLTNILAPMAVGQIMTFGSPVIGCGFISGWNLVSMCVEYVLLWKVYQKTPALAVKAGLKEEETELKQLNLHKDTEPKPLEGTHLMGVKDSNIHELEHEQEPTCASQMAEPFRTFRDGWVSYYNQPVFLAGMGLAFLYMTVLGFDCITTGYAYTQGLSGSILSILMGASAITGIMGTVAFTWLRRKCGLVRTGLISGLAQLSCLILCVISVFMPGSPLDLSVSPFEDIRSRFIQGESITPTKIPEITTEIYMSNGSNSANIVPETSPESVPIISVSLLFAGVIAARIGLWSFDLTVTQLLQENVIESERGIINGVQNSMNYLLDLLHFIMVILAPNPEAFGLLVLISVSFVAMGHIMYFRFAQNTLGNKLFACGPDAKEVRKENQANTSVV
Experiment: Biological in-vitro ferroportin internalization assay (luciferase reporter)
Assay type: cell-based
Details: average pEC50; stably-transfected CHO cell line expressing human ferroportin tagged to a luciferase reporter; 6 h incubation with test compound
How it was run: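 Read-out is Nano-Glo luciferase signal after 6 h compound exposure, with average pEC50 derived. Cells are a stable CHO line carrying luciferase-tagged human ferroportin, pre-loaded 24 h with ferric ammonium citrate and doxycycline-induced for 24 h.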

SMILES | pEC50
[2H]C([2H])([2H])N(CCOc1ccnc(-c2nc3c(c(N(C)CC(=O)NC(C)(C)C)n2)CCC3)c1)C([2H])([2H])[2H] [Compound 508, N-tert-butyl-2-{[2-(4-{2-[di(2H3)methylamino]ethoxy}pyridin-2-yl)-5H,6H,7H-cyclopenta[d]pyrimidin-4-yl](methyl)amino}acetamide] | 7.6
CN(CC(=O)NC(C)(C)C)c1nc(-c2cc(OCCN3C[C@@H]4C[C@H]3CO4)ccn2)nc2c1CCC2 [Compound 461, N-tert-butyl-2-{methyl[2-(4-{2-[(1S,4S)-2-oxa-5-azabicyclo[2.2.1]heptan-5-yl]ethoxy}pyridin-2-yl)-5H,6H,7H-cyclopenta[d]pyrimidin-4-yl]amino}acetamide] | 8.3
CN(C)CCOc1ccnc(-c2nc(N(C)CC(=O)NC(C)(C)C)c3c(n2)C(C)(C)CC3)c1 [Compound 457, N-tert-butyl-2-[(2-{4-[2-(dimethylamino)ethoxy]pyridin-2-yl}-7,7-dimethyl-5H,6H,7H-cyclopenta[d]pyrimidin-4-yl)(methyl)amino]acetamide] | 6.3
COc1ccc(NC(=O)CN(C)c2nc(-c3cc(OC(F)F)ccn3)nc3c2CCC3)cn1 [Compound 225, 2-({2-[4-(difluoromethoxy)pyridin-2-yl]-5H,6H,7H-cyclopenta[d]pyrimidin-4-yl}(methyl)amino)-N-(6-methoxypyridin-3-yl)acetamide] | 6.8
CN1CC[C@@H](Oc2ccnc(-c3nc4c(c(N(C)CC(=O)NC5(C(F)(F)F)CC5)n3)CCC4)c2)C1 [Compound 487, 2-{methyl[2-(4-{[(3R)-1-methylpyrrolidin-3-yl]oxy}pyridin-2-yl)-5H,6H,7H-cyclopenta[d]pyrimidin-4-yl]amino}-N-[1-(trifluoromethyl)cyclopropyl]acetamide] | 7.5
Cc1ccnc(-c2nc3c(c(N(C)CC(=O)Nc4cccc(F)c4)n2)CCC3)c1 [Compound 66, N-(3-fluorophenyl)-2-{methyl[2-(4-methylpyridin-2-yl)-5H,6H,7H-cyclopenta[d]pyrimidin-4-yl]amino}acetamide] | 7.7
COc1ccc(NC(=O)[C@@H](C)N(C)c2nc(-c3cc4ccccc4cn3)nc3c2CCC3)cn1 [Compound 250, (2R)-2-{[2-(isoquinolin-3-yl)-5H,6H,7H-cyclopenta[d]pyrimidin-4-yl](methyl)amino}-N-(6-methoxypyridin-3-yl)propanamide] | 7.4
CC(C(=O)NC1CCCCC1)N(C)c1nc(-c2ccccn2)nc2c1CCC2 (stereo not drawn) [Compound 91, N-cyclohexyl-2-{methyl[2-(pyridin-2-yl)-5H,6H,7H-cyclopenta[d]pyrimidin-4-yl]amino}propanamide] | 7.3
CN(CC(=O)NC1(C)CCCC1)c1nc(-c2cn(C)cn2)nc2c1CCC2 [Compound 161, 2-{methyl[2-(1-methyl-1H-imidazol-4-yl)-5H,6H,7H-cyclopenta[d]pyrimidin-4-yl]amino}-N-(1-methylcyclopentyl)acetamide] | 7.4
CN(c1nc(-c2ccccn2)nc2c1CCC2)[C@@H](CO)C(=O)NC(C)(C)C [Compound 123, (2S)—N-tert-butyl-3-hydroxy-2-{methyl[2-(pyridin-2-yl)-5H,6H,7H-cyclopenta[d]pyrimidin-4-yl]amino}propanamide] | 7.2
CN(CC(=O)Nc1cccc(F)c1)c1nc(-c2cn(C)cn2)nc2c1CCC2 [Compound 271, N-(3-fluorophenyl)-2-{methyl[2-(1-methyl-1H-imidazol-4-yl)-5H,6H,7H-cyclopenta[d]pyrimidin-4-yl]amino}acetamide] | 7.4
CCNC(=O)CN(C)c1nc(-c2cc(OCC(C)(C)O)ccn2)nc2c1CCC2 [Compound 390, N-ethyl-2-({2-[4-(2-hydroxy-2-methylpropoxy)pyridin-2-yl]-5H,6H,7H-cyclopenta[d]pyrimidin-4-yl}(methyl)amino)acetamide] | 7.8
